# Values of other authors in patent publication US8178105B2, “Composition containing Agaricus blazei Murill” (Kyowa Hakko Bio Co., Ltd., priority 2006, dated 2012).
# Tested on: Sarcoma-180
# Settings: oral administration; Sarcoma-180 transplanted mouse; non-patent document 5
smiles,measurement,value
N=C(N)NCCC[C@H](N)C(=O)O [arginine],antitumor effect and life extension (in words),marked antitumor effect and life extension
